Columns and labels:
ppERK1/2 = test: Immunoblot for dual-phosphorylated ERK1/2 in melanoma cells; format: cell-based, human
Source text: By way of non-limiting example, inhibition of ERK signaling can be measured by determining the level of dual-phosphorylated ERK1/2 (ppERK1/2) as described in detail elsewhere herein. In brief, the level of ppERK1/2 can be detected by immunoblot assay.

β-catenin = test: Immunoblot for β-catenin phosphorylation at Ser33/Ser37/Thr41 in A375 cells; format: cell-based, human
A375 [1] = test: qPCR of endogenous Wnt target gene AXIN2, A375; format: cell-based, human; conditions: A375; WNT3A CM, 2 μM PLX4720, 24 hours
Source text: (§1) RNA purification and qRT-PCR analysis. RNA was purified using the RNeasy kit following the manufacturer's protocol (Qiagen; Maryland, Md.). cDNA was synthesized using RevertAid™ M-MuLV Reverse Transcriptase (Fermentas; Ontario, CAN). Light Cycler FastStart DNA Master SYBR Green1 (Roche; Mannheim, Germany) was used for real-time PCR as previously described (53). Quantitative PCR results presented in the manuscript are averages of a minimum of three biologic replicates.

A375 [2] = test: Flow cytometry for active (cleaved) caspase-3, A375; format: cell-based, human
Description: (§2) Flow cytometry for Active Caspase-3. Cells were seeded in a 6-well dish at a density to achieve 90-100% confluence at harvest. 24 hours after seeding, cells were treated with the indicated conditions for the indicated amount of time. At the time of collection, supernatants were collected and pooled with trypsinized cells. Cells were fixed with 4% paraformaldehyde and permeabilized according to vendor's protocol for Cleaved Caspase-3 (Asp175) Antibody (AlexaFluor 488 Conjugate) (catalog #9669) (Cell Signaling, Beverly Mass.). The antibody was used at a final dilution of 1:100. Flow was performed on a BD FACSCanto H, and data analysed with FlowJo 8.8.6 (Tree Star) software. Experiments were performed with biological triplicates and data are representative of at least three independent experiments. For experiments involving siRNAs, cells were reverse transfected with 20 nM siRNA in 6-well dishes in triplicate with RNAiMax according to manufacturer's protocol. 48 hours following transfection, cells were treated with the indicated conditions for 24 hours and then harvested for analysis. Cells were harvested, stained, and analyzed as described above.

SKMEL28 = test: Flow cytometry for active (cleaved) caspase-3, SKMEL28; format: cell-based, human; conditions: 2 uM PLX4720, 24 hours, in % (unit assumed)
Description: as §2, with “experiments.” for “experiments. For experiments involving siRNAs, cells were reverse transfected with 20 nM siRNA in 6-well dishes in triplicate with RNAiMax according to manufacturer's protocol. 48 hours following transfection, cells were treated with the indicated conditions for 24 hours and then harvested for analysis. Cells were harvested, stained, and analyzed as described above.”
For experiments involving siRNAs, cells were reverse transfected with 20 nM siRNA in 6-well dishes in triplicate with RNAiMax according to manufacturer's protocol. 48 hours following transfection, cells were treated with the indicated conditions for 24 hours and then harvested for analysis. Cells were harvested, stained, and analyzed as described above.

Wnt/β-catenin signaling = test: WNT3A-mediated reporter activity in primary melanocytes; format: cell-based, human; conditions: HEMs
A375 cells = test: Immunoblot of apoptosis markers (cleaved caspase-3, cleaved PARP1) in A375 cells; format: cell-based, human
BAD and Bim (BCL2L11) = test: Immunoblot of BH3-only proteins BAD and Bim in A375 cells; format: cell-based, human
[3] = test system: human epidermal melanocytes (HEM); test: qPCR of endogenous Wnt target gene AXIN2, human epidermal melanocytes (HEM); format: cell-based; conditions: WNT3A CM, 2 μM PLX4720, 24 hours
Source text: as §1

[4] = A375, WNT3A and PLX4720 time course

In the case of `CCCS(=O)(=O)Nc1ccc(F)c(C(=O)c2c[nH]c3ncc(Cl)cc23)c1F` [PLX4720, N-[3-[(5-Chloro-1H-pyrrolo[2,3-b]pyridin-3-yl)carbonyl]-2,4-difluorophenyl]-1-propanesulfonamide], the “dual-phosphorylated ERK1/2 (ppERK1/2)” value (ppERK1/2; A375) is reported as “dose-dependent inhibition”, the “time to inhibition of ppERK” value (ppERK1/2; [4]) is reported as no more than 30 min and the ERK1/2 phosphorylation (ppERK1/2; six established melanoma lines harboring the BRAF^V600E mutation) is reported as “inhibition of ERK1/2 phosphorylation”. The “phosphorylation of β-catenin at GSK3β sites (Ser33/Ser37/Thr41)” value (β-catenin) was “decreased phosphorylation of β-catenin”, the “SYNERGISTIC WNT ACTIVATION WITH PLX4720?” value (A375 [1]) was “YES” and the “increase in cleaved caspase-3” value (A375 [2]; A375, WNT3A CM plus 2 μM PLX4720, 24 hours) was 5-20 fold. The “cleaved caspase-3” value (A375 [2]; A375, single agent alone, 24 hours) was “minimal increases in cleaved caspase-3”, the “SYNERGISTIC APOPTOSIS WITH WNT AND PLX4720?” value (A375 [2]; A375, WNT3A, 2 μM PLX4720, 24 hours) was “YES” and the “cleaved caspase-3-positive cells” value (SKMEL28; AXIN1/2 siRNA, L CM) was 31.47 ± 0.13. The “cleaved caspase-3-positive cells” value (SKMEL28; AXIN1/2 siRNA, W3A CM) was 33.93 ± 4.1, the “cleaved caspase-3-positive cells” value (SKMEL28; Control siRNA, L CM) was 6.02 ± 0.63 and the “cleaved caspase-3-positive cells” value (SKMEL28; Control siRNA, W3A CM) was 8.64 ± 1.9. For the same compound, the Wnt/β-catenin signaling (Wnt/β-catenin signaling) was “no detectable effect”, the “time at which cleaved caspase-3 was first detected” value (A375 cells; [4]) was 12 to 16 h and the “cleavage of the caspase-3 substrate PARP1” value (A375 cells; A375, combined WNT3A and 2 μM PLX4720, 24 hours) was “synergistic cleavage of the caspase-3 substrate, PARP1”. For the same compound, the caspase3 activation (A375 cells; A375, longer treatment with PLX4720, no exogenous WNT3A) was “led to activation of caspase3”, the “phosphorylation of BimEL” value (BAD and Bim (BCL2L11); A375, 2 μM PLX4720, 24 hours) was “decreased phosphorylation of the largest Bim isoform, BimEL” and the “phosphorylation of Ser75 on BAD” value (BAD and Bim (BCL2L11); A375, 24 hours) was “decreased Ser75 phosphorylation”. The “BimL and BimS levels” value (BAD and Bim (BCL2L11); A375, combination of WNT3A and PLX4720, 24 hours) was “marked increase in BimL and BimS” and the AXIN2 transcript levels [3] was “did not exhibit any increase in AXIN2 transcript levels”.

From patent US20120059021A1, “COMPOSITIONS AND METHODS FOR TREATING CANCER AND METHODS FOR PREDICTING A RESPONSE TO SUCH TREATMENTS” (UNIVERSITY OF WASHINGTON, priority 2008, published 2012)
